These are literature values, as cited in patent publication US7098376B2, “Transgenic mouse expressing constitutively active hydrocarbon receptor” (InDex Pharmaceuticals AB, priority 2000, dated 2006).

This data set relates to mouse models.

Take `Clc1cc2c(cc1Cl)Oc1cc(Cl)c(Cl)cc1O2` [TCDD, 2,3,7,8-tetrachlorodibenzo-p-dioxin]: for the setting “mice exposed to TCDD”, the “dose at which weight loss or impaired weight gain are detected” value is recorded as “higher than 3 μg/kg body weight”. Moreover, the “acute toxic effects (e.g. lethality or the wasting syndrome)” value (single dose of 3 μg TCDD/kg body weight, mouse models) was “no acute toxic effects”.
